target: T1, Human 5HT-7 (Homo sapiens, UniProt P34969); experiment: Evaluation of 5HT-7 agonist activity using 5HT-7 expression cells (cAMP); format: cell-based; settings: cAMP in h5HT7-C2 CHO-K1 cells; 10 μM serotonin = 100%
T1 construct: host or cells: CHO-K1 (h5HT7-C2 cells)
Experimental: Evaluation of 5HT-7 Agonist Activity Using 5HT-7 Expression Cells
Then, the cAMP concentration was determined using a cAMP EIA kit (RPN225, Amersham) by the method in conformity of the attached protocol (Protocol 2. Acetylation EIA Procedure). […] The cAMP concentrations obtained with varied concentrations of the compound were expressed by percentage (%), and the relationship between the concentration of each compound and the cAMP (%) was approximated to a sigmoid curve. A concentration of the compound corresponding to the cAMP value that is a half the maximum value (Emax) on the approximated sigmoid curve was defined as the value of EC50.

T1 sequence (P34969 1-445 isoform P34969-2): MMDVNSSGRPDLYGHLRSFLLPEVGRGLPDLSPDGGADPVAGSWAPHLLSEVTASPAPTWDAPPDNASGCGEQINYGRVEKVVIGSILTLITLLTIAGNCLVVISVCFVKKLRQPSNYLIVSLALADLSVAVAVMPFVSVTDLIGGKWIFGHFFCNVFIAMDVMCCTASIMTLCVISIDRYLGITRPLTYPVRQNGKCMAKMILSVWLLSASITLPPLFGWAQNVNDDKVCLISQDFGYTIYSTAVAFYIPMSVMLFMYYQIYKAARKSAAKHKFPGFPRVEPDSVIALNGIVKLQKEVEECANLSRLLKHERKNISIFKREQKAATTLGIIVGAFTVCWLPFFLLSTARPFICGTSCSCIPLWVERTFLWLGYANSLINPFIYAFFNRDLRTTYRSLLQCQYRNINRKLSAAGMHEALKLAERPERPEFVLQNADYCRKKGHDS

SMILES	EC50 [nM]
COc1ccc(OC)c(C(=C2CCNCC2)c2cccc(Cl)c2)c1 [Example 4]	87

target: T2, Human 5-HT7a receptor (Homo sapiens, UniProt P34969); experiment: Receptor binding assay (RBA) using 5HT-7 expression cells; settings: not given
T2 construct: host or cells: CHO-K1 (h5HT7-C1 cells)
Experimental: Receptor Binding Assay (RBA) Using 5HT-7 Expression Cells
Human 5-HT7a receptor expression CHO—K1 cells (Euroscreen; h5HT7-C1 cells, No. ES-317-C) were cultured in an incubator (CO2: 5%) at 37° C., using Ham's F-12 culture medium containing 400 μg/ml G418, 100 U/ml penicillin, 100 μg/ml streptomycin, and 10% fetal bovine serum. After removal of the culture medium, the cells were washed with phosphate-buffered saline (PBS(−)) free of Ca^2+ and Mg^2+, and then peeled away from a petri dish using HMEE buffer (20 mM HEPES-KOH (pH7.4), 1 mM EDTA, 1 mM EGTA, 2 mM MgCl2). The cells thus collected were homogenized on ice using a Teflon homogenizer, centrifuged at 1,500×g for 5 minutes at 4° C., and the resultant supernatant liquid was then recovered. The supernatant liquid was further centrifuged at 12,000×g for 30 minutes at 4° C. The resultant precipitate was suspended in a HMEE buffer and the resultant suspension was dispensed and flash-frozen in liquid nitrogen. Thus, the frozen product was maintained at −80° C. and melted at room temperature when used in practice. In a 96-well polystyrene round-bottom plate (Falcon, No. 351190), a membrane preparation, the test compound, and 2-[^125I]-(+)-iodo-lysergic acid diethylamide (Perkin Elmer Life Science, No. NEX199) were reacted at room temperature for 3 hours in 50 μL of a binding buffer (50 mM HEPES-NaOH (pH7.4), 1 mM CaCl2, 5 mM MgCl2, 0.5% BSA) in each well. After completion of the reaction, the mixture was trapped by suction into a 96-well GF/B Unifilter plate (Perkin Elmer Life Science, No. 6005177), 50 μL of 0.05% polyethyleneimine being previously added to each well. Each well of the above-mentioned Unifilter plate was washed with about 200 μL of a washing buffer (50 mM HEPES-NaOH (pH7.4), 1 mM CaCl2, 5 mM MgCl2, 0.5 M NaCl, 0.05% Tween-20) three times, and dried overnight. Then, 30 μL of Microscint (Packard, No. NR6013611) was added to each well. The amount of bound 2-[^125I]-(+)-iodo-lysergic acid diethylamide was determined using Top Counter (Packard). The count obtained when 100 μM of crozapine was used as the test compound was fixed at 0%, while the count obtained when no compound was added was fixed at 100%. The binding ratios of 2-[^125I]-(+)-iodo-lysergic acid diethylamide obtained at varied concentrations of the compound were expressed by percentage (%), and the relationship between the concentration of each compound and the binding ratio (%) was approximated to a sigmoid curve. A concentration of the compound corresponding to the binding ratio 50% of 2-[^125I]-(+)-iodo-lysergic acid diethylamide was defined as the value of IC50.

T2 sequence (P34969 1-445 isoform P34969-2): as above

SMILES	IC50 [nM]
COc1ccccc1C(=C1CCN(C)CC1)c1ccc(Cl)c(Cl)c1 [Example 54]	31.6
CCN1CCC(=C(c2cccc(Cl)c2)c2cc(OC)ccc2OC)CC1 [Example 58]	15.8

same assay, conditions: displacement of 2-[125I]-(+)-iodo-lysergic acid diethylamide, membranes of human 5-HT7a CHO-K1 cells; read-out: pIC50 (converted)

SMILES	IC50 [nM]
COc1ccccc1C(=C1CCN(C)CC1)c1cccc(Cl)c1 [Example 1]	39.8
COc1ccc(OC)c(C(=C2CCNCC2)c2cccc(Cl)c2)c1 [Example 4]	20
CCCN1CCC(=C(c2cccc(Cl)c2)c2ccccc2OC)CC1 [Example 7]	31.6
COc1ccccc1C(=C1CCN(CCCNC(=O)OC(C)(C)C)CC1)c1cccc(Cl)c1 [Example 36]	100
COc1ccccc1C(=C1CCN(CCNS(=O)(=O)c2cc(Cl)ccc2Cl)CC1)c1cccc(Cl)c1 [Example 49]	10
CCCCN1CCC(=C(c2cccc(Cl)c2)c2cc(OC)ccc2OC)CC1 [Example 60]	100

The remaining lines, values ahead:

IC50 [nM]	SMILES
39.8	COc1ccccc1C(=C1CCN(C)CC1)c1ccc(Cl)s1 [Example 55]
39.8	COc1ccccc1C(=C1CCN(C)CC1)c1ccc(C)s1 [Example 56]
31.6	COc1ccc(C)cc1C(=C1CCN(C)CC1)c1cccc(Cl)c1 [Example 57]
